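1) Cells in 96-well plates. 2) Compound, 48 h, 5 concentrations. 3) Linear interpolation between surrounding doses. 4) Unreached endpoint = highest concentration. The concentration for 50% growth inhibition is given as GI50. The concentration for full growth arrest is given as TGI.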

21 molecules from PubChem BioAssay (NCI) can be followed below.

What all share (experiment): NCI tumour cell line growth inhibition, 48 h
The subject of assay [1] is MDA-N.
Assay [2] has as its system DLD-1 colon.
For assay [3], the system named is DMS 114 small cell lung.
Assay [4] relates to DMS 273 small cell lung.
For assay [5], the system named is KM20L2 colon.
For assay [6], the system named is M19-MEL melanoma.
Assay [7] has as its system XF 498 CNS.
For assay [8], the system named is HOP-18 NSCLC.
Assay [9] relates to P388 leukemia.
Assay [10] has as its system P388/ADR leukemia.
Assay [11] has as its system SN12K1 renal.
Assay [12] relates to RXF-631 renal.

As to `COc1cccc2c1C(=O)c1c(O)c3c(c(O)c1C2=O)CC(O)(C(C)=O)CC3OC1CC(N)C(O)C(C)O1` (stereo not given), in assay [1], the GI50 is 0.156 µg/mL and the TGI amounted to 0.391 µg/mL.

As for `Cc1ccc(C)c(NC(=O)C(=O)CC(=O)C2CCOC2=O)c1` (stereo not given), the TGI in assay [2], in [3], in [4], in [5], in [6] and in [7] was over 100 µM each time.

Turning to `CC1[C@@H]2[C@@H](C=C3C4CCC5Cc6nc7c(nc6C[C@@]5(C)C4C[C@H](O)[C@]32CO)CC2CCC3C4=C[C@H]5O[C@@]6(O[C@@](C)(CO)C[C@@H]6O)C(C)[C@@]5(O)[C@]4(C)[C@@H](O)CC3[C@]2(C)C7)O[C@]12CCC(C)(C)O2` (stereo not given in full), the GI50 in assay [2] is 0.583 µM; in [4] it was under 0.000365 µM; in assay [8] it was 2.08 µM; in assay [5] it was 0.00719 µM; in [6] it was 2.13 µM; in assay [7], under 0.000365 µM. Further, the TGI in assay [2] is over 3.65 µM; in assay [3], over 3.65 µM; in [8], over 3.65 µM; in assay [5], 0.619 µM; in [6], over 3.65 µM; in assay [9] it was over 3.65 µM. In addition, the TGI in [10] and in assay [11] was over 3.65 µM each time.

In the case of `O=C(O)CSCc1cccc2ccccc12`, the TGI in assay [1] is over 100 µM.

With `CCC(C)CN1C(=O)NC(C)(Cc2ccccc2)C1=O` (stereo not given), the TGI in assay [2], in [3], in assay [4], in assay [8], in assay [5] and in assay [6] was over 100 µM each time. The TGI in assay [7] was over 100 µM.

As for `N=C(c1ccccc1)N(c1ccccc1)c1ccccc1`, the TGI is over 100 µM in assay [2]; over 100 µM in assay [4]; 13.1 µM in [8]; over 100 µM in assay [5]; over 100 µM in assay [6].

As to `O=C1c2ccccc2C2(O)Nc3cc(O)ccc3C12O` (stereo not given), the TGI in [2], in assay [3], in assay [4], in assay [8], in assay [5] and in assay [12] was over 100 µM throughout.

Regarding `COc1cccc([C@H]2CC(=O)c3cc4c(cc3N2)OCO4)c1`, in assay [1], the GI50 was 0.0287 µM.

With `COc1cc2c(cc1OC)C13CCN4C=C5CCOC6CC(=O)N2C1C6C5CC43` (stereo not given), the TGI in assay [1] was over 100 µM.

On to `COc1ccc(/C(=N/NC(N)=O)C2(O)C(=O)Nc3ccc([N+](=O)[O-])cc32)cc1` (stereo not given), for which the TGI in assay [2] was found to be 57 µM; in assay [3], 47.8 µM; in assay [4], 39.3 µM; in assay [5], 51.5 µM; in assay [6] it was 45.6 µM; in assay [7], 30.1 µM.

As for `CC[P+](C)(Cc1ccccc1)c1ccccc1` (stereo not given), the TGI in [2], in assay [3], in assay [4], in assay [8], in [5] and in assay [6] was over 100 µM each time. This molecule also had a TGI in assay [7] of over 100 µM.

Consider `C#CCC[C@@H]1O[C@@]1(C)CC/C=C(\C)CC/C=C/C=O`, for which the TGI in assay [3] is 35.1 µM; in assay [4], 39 µM; in assay [5] it was over 100 µM; in [6] it was 48.1 µM; in assay [7], 58.2 µM.

`C=CCC1OC(C)(C)Oc2ccc(OCOCCOC)cc21` (stereo not given) came in with a TGI in assay [3] of over 100 µM.

On to `N#Cc1cccc(N2C(=O)c3c(c(-c4ccccc4)c(-c4ccc(Sc5ccc(-c6c(-c7ccccc7)c7c(c(-c8ccccc8)c6-c6ccccc6)C(=O)N(c6cccc(C#N)c6)C7=O)cc5)cc4)c(-c4ccccc4)c3-c3ccccc3)C2=O)c1`, for which the TGI in [2] was over 100 µM; in assay [3], over 100 µM; in assay [4] it was over 100 µM; in [5], over 100 µM; in [12] it was over 100 µM; in assay [7], 85 µM.

For `CC1=C(C(=O)NCc2ccccc2)C(c2ccc(C3C(C(=O)NCc4ccccc4)=C(C)NC(C)=C3C(=O)NCc3ccccc3)cc2)C(C(=O)NCc2ccccc2)=C(C)N1`, the TGI is 13.1 µM in assay [2]; 25.9 µM in [3]; 31.7 µM in [4]; 52.7 µM in assay [8]; 29 µM in [5]; 21.3 µM in assay [6]. The molecule further returned a TGI in [7] of 31.1 µM.

`CCSc1nnc2c(-c3ccccc3)n[nH]c2n1` showed a TGI in assay [1] of over 100 µM.

As to `Nc1nc(CCC(=O)Nc2cccc(C(F)(F)F)c2)cc(-c2cccc3ccccc23)n1`, the TGI in [2], in [3], in assay [4], in [8], in [5] and in assay [6] was over 100 µM each time. For the same molecule, the TGI in [12] and in [7] was over 100 µM throughout.

Turning to `CC1CC2C3CC(F)C4=CC(=O)C=CC4(C)C3(F)C(O)CC2(C)C1(O)C(=O)COC(=O)C(C)(C)C` (stereo not given), the TGI in [2], in assay [3], in assay [4], in assay [5], in assay [6] and in assay [7] was over 100 µM each time.

As for `COc1ccc(S(=O)(=O)NC(C)C(=O)O)cc1` (stereo not given), the TGI in assay [2] was over 100 µM; in [4] it was over 100 µM; in assay [8] it was over 100 µM; in [5], over 100 µM; in [6], over 100 µM; in assay [7], 63.4 µM.

Turning to `CN(C)c1ccc2c(c1)C(=O)N(OS(=O)(=O)c1ccc([N+](=O)[O-])cc1)C2=O`, the TGI was 86.8 µM in assay [2]; over 10 µM in [3]; 43.9 µM in assay [4]; over 100 µM in assay [8]; 52.7 µM in [6]; 47.1 µM in assay [12]. The same molecule returned a TGI in assay [7] of 35.1 µM.

As for `CCOc1ccccc1NC(=O)CCC(=O)OC`, the TGI in assay [2], in assay [3], in [4], in [8], in assay [5] and in assay [6] was over 100 µM throughout. In assay [7], this molecule had a TGI of over 100 µM.
